Columns and labels:
[1] = tested on: wheat; test: Test C postemergence; type: in vivo, Triticum aestivum; details: 10 days, 0 to 100 scale (0 no effect, 100 complete control)
Method in brief: (§1)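 Seeds sown in loam soil–sand blend received a directed preemergence soil spray of test chemical in non-phytotoxic solvent with surfactant; postemergence plants (2–10 cm, one- to two-leaf stage) were sprayed with the same formulation. Greenhouse-held 10 days, then visually rated for injury versus untreated controls, 0 (no effect) to 100 (complete control).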

[2] = tested on: corn; test: Test C postemergence; type: in vivo, Zea mays; details: 10 days, 0 to 100 scale (0 no effect, 100 complete control)
Method in brief: as §1

[3] = tested on: soybean; test: Test C postemergence; type: in vivo, Glycine max; details: 10 days, 0 to 100 scale (0 no effect, 100 complete control)
Method in brief: as §1

[4] = tested on: kochia; test: Test C preemergence; type: in vivo, Bassia scoparia; details: preemergence, 0 to 100 scale (0 no effect, 100 complete control)
Method in brief: as §1

[5] = tested on: blackgrass; test: Test C postemergence; type: in vivo, Alopecurus myosuroides; details: 10 days, 0 to 100 scale (0 no effect, 100 complete control)
Method in brief: as §1

[6] = tested on: rice; test: Test D flooded paddy test; type: in vivo, Oryza sativa; details: 250 g ai/ha, applied to paddy water, visual rating after 13 to 14 days, scale 0 to 100 (0 no effect, 100 complete control)
Method in brief: (§2)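 Post-flood water application at the 2-leaf stage; 3 cm flood depth kept constant; visual control rating 0–100 after 13–14 days greenhouse growth.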

[7] = tested on: ragweed; test: Test C preemergence; type: in vivo, Ambrosia artemisiifolia; details: preemergence, 0 to 100 scale (0 no effect, 100 complete control)
Method in brief: as §1

[8] = tested on: oat, wild; test: Test C preemergence; type: in vivo, Avena fatua; details: preemergence, 0 to 100 scale (0 no effect, 100 complete control)
Method in brief: as §1

[9] = tested on: kochia; test: Test C postemergence; type: in vivo, Bassia scoparia; details: 10 days, 0 to 100 scale (0 no effect, 100 complete control)
Method in brief: as §1

[10] = tested on: horseweed; test: Test C postemergence; type: in vivo, Erigeron canadensis; details: 10 days, 0 to 100 scale (0 no effect, 100 complete control)
Method in brief: as §1

[11] = tested on: green foxtail; test: Test C preemergence; type: in vivo, Setaria viridis; details: preemergence, 0 to 100 scale (0 no effect, 100 complete control)
Method in brief: as §1

[12] = tested on: green foxtail; test: Test C postemergence; type: in vivo, Setaria viridis; details: 10 days, 0 to 100 scale (0 no effect, 100 complete control)
Method in brief: as §1

[13] = tested on: ryegrass, Italian; test: Test C postemergence; type: in vivo, Lolium multiflorum; details: 10 days, 0 to 100 scale (0 no effect, 100 complete control)
Method in brief: as §1

[14] = tested on: corn; test: Test C preemergence; type: in vivo, Zea mays; details: preemergence, 0 to 100 scale (0 no effect, 100 complete control)
Method in brief: as §1

[15] = tested on: barnyardgrass; test: Test D flooded paddy test; type: in vivo, Echinochloa crus-galli; details: 250 g ai/ha, applied to paddy water, visual rating after 13 to 14 days, scale 0 to 100 (0 no effect, 100 complete control)
Method in brief: as §2

[16] = tested on: barnyardgrass; test: Test C preemergence; type: in vivo, Echinochloa crusgalli; details: preemergence, 0 to 100 scale (0 no effect, 100 complete control)
Method in brief: as §1

[17] = tested on: pigweed, palmer; test: Test C preemergence; type: in vivo, Amaranthus palmeri; details: preemergence, 0 to 100 scale (0 no effect, 100 complete control)
Method in brief: as §1

[18] = tested on: ducksalad; test: Test D flooded paddy test; type: in vivo, Heteranthera limosa; details: 250 g ai/ha, applied to paddy water, visual rating after 13 to 14 days, scale 0 to 100 (0 no effect, 100 complete control)
Method in brief: as §2

[19] = tested on: soybean; test: Test C preemergence; type: in vivo, Glycine max; details: preemergence, 0 to 100 scale (0 no effect, 100 complete control)
Method in brief: as §1

[20] = tested on: ragweed; test: Test C postemergence; type: in vivo, Ambrosia artemisiifolia; details: 10 days, 0 to 100 scale (0 no effect, 100 complete control)
Method in brief: as §1

[21] = tested on: sedge, umbrella; test: Test D flooded paddy test; type: in vivo, Cyperus difformis; details: 250 g ai/ha, applied to paddy water, visual rating after 13 to 14 days, scale 0 to 100 (0 no effect, 100 complete control)
Method in brief: as §2

[22] = tested on: wheat; test: Test C preemergence; type: in vivo, Triticum aestivum; details: preemergence, 0 to 100 scale (0 no effect, 100 complete control)
Method in brief: as §1

[23] = tested on: blackgrass; test: Test C preemergence; type: in vivo, Alopecurus myosuroides; details: preemergence, 0 to 100 scale (0 no effect, 100 complete control)
Method in brief: as §1

[24] = tested on: barnyardgrass; test: Test C postemergence; type: in vivo, Echinochloa crusgalli; details: 10 days, 0 to 100 scale (0 no effect, 100 complete control)
Method in brief: as §1

[25] = tested on: galium; test: Test C postemergence; type: in vivo, Galium aparine; details: 10 days, 0 to 100 scale (0 no effect, 100 complete control)
Method in brief: as §1

[26] = tested on: oat, wild; test: Test C postemergence; type: in vivo, Avena fatua; details: 10 days, 0 to 100 scale (0 no effect, 100 complete control)
Method in brief: as §1

[27] = tested on: ryegrass, Italian; test: Test C preemergence; type: in vivo, Lolium multiflorum; details: preemergence, 0 to 100 scale (0 no effect, 100 complete control)
Method in brief: as §1

[28] = tested on: pigweed, palmer; test: Test C postemergence; type: in vivo, Amaranthus palmeri; details: 10 days, 0 to 100 scale (0 no effect, 100 complete control)
Method in brief: as §1

SMILES: Cc1cccc2c1O[C@@H](C)CN2C(=O)c1cccc(-n2cnc(N)n2)c1 [Compound 308]
- Plant response rating, Wheat ([1]; 500 g ai/ha, postemergence): 20
- Plant response rating, Wheat ([1]; Postemergence, 125 g ai/ha): 10
- Plant response rating, Corn ([2]; 500 g ai/ha, postemergence): 40
- Plant response rating, Corn ([2]; Postemergence, 125 g ai/ha): 10
- Plant response rating, Soybean ([3]; 500 g ai/ha, postemergence): 100
- Plant response rating, Soybean ([3]; Postemergence, 125 g ai/ha): 90
- Kochia plant response rating ([4]; 500 g ai/ha): 20
- Kochia plant response rating ([4]; Test C, 125 g ai/ha): 0
- Plant response rating, Blackgrass ([5]; 500 g ai/ha, postemergence): 60
- Plant response rating, Blackgrass ([5]; Postemergence, 125 g ai/ha): 10
- Plant response rating, Rice (Flood) [6]: 0
- Ragweed plant response rating ([7]; 500 g ai/ha): 20
- Ragweed plant response rating ([7]; Test C, 125 g ai/ha): 30
- Oat, Wild plant response rating ([8]; 500 g ai/ha): 70
- Oat, Wild plant response rating ([8]; Test C, 125 g ai/ha): 0
- Plant response rating, Kochia ([9]; 500 g ai/ha, postemergence): 20
- Plant response rating, Kochia ([9]; Postemergence, 125 g ai/ha): 20
- Plant response rating, Horseweed ([10]; 500 g ai/ha, postemergence): 0
- Plant response rating, Horseweed ([10]; Postemergence, 125 g ai/ha): 20
- Foxtail, Green plant response rating ([11]; 500 g ai/ha): 90
- Foxtail, Green plant response rating ([11]; Test C, 125 g ai/ha): 30
- Plant response rating, Foxtail, Green ([12]; 500 g ai/ha, postemergence): 50
- Plant response rating, Foxtail, Green ([12]; Postemergence, 125 g ai/ha): 20
- Plant response rating, Ryegrass, Italian ([13]; 500 g ai/ha, postemergence): 20
- Plant response rating, Ryegrass, Italian ([13]; Postemergence, 125 g ai/ha): 0
- Corn plant response rating ([14]; 500 g ai/ha): 0
- Corn plant response rating ([14]; Test C, 125 g ai/ha): 0
- Plant response rating, Barnyardgrass (Flood) [15]: 0
- Barnyardgrass plant response rating ([16]; 500 g ai/ha): 50
- Barnyardgrass plant response rating ([16]; Test C, 125 g ai/ha): 0
- Pigweed, Palmer plant response rating ([17]; 500 g ai/ha): 80
- Pigweed, Palmer plant response rating ([17]; Test C, 125 g ai/ha): 20
- Plant response rating, Ducksalad (Flood) [18]: 0
- Soybean plant response rating ([19]; 500 g ai/ha): 0
- Soybean plant response rating ([19]; Test C, 125 g ai/ha): 0
- Plant response rating, Ragweed ([20]; 500 g ai/ha, postemergence): 30
- Plant response rating, Ragweed ([20]; Postemergence, 125 g ai/ha): 0
- Plant response rating, Sedge, Umbrella (Flood) [21]: 0
- Wheat plant response rating ([22]; 500 g ai/ha): 30
- Wheat plant response rating ([22]; Test C, 125 g ai/ha): 0
- Blackgrass plant response rating ([23]; 500 g ai/ha): 30
- Blackgrass plant response rating ([23]; Test C, 125 g ai/ha): 0
- Plant response rating, Barnyardgrass ([24]; 500 g ai/ha, postemergence): 30
- Plant response rating, Barnyardgrass ([24]; Postemergence, 125 g ai/ha): 10
- Plant response rating, Galium ([25]; 500 g ai/ha, postemergence): 80
- Plant response rating, Galium ([25]; Postemergence, 125 g ai/ha): 70
- Plant response rating, Oat, Wild ([26]; 500 g ai/ha, postemergence): 0
- Plant response rating, Oat, Wild ([26]; Postemergence, 125 g ai/ha): 0
- Ryegrass, Italian plant response rating ([27]; 500 g ai/ha): 70
- Ryegrass, Italian plant response rating ([27]; Test C, 125 g ai/ha): 30
- Plant response rating, Pigweed, Palmer ([28]; 500 g ai/ha, postemergence): 50
- Plant response rating, Pigweed, Palmer ([28]; Postemergence, 125 g ai/ha): 10

Reference: patent US20260262643A1, “HERBICIDAL BENZOXAZINES” (FMC CORPORATION, priority 2022, published 2026)
